Results from US11932599B2, “Ferroptosis inducing compound, compositions comprising the same, and methods of inducing ferroptosis” (UNIVERSITY OF MASSACHUSETTS, priority 2021, dated 2024).

How the values were obtained:
[1] = system: HT-1080 cells; assay: Cell viability assay (Alamar Blue), cytotoxicity in HT-1080 cells; type: cell-based, human; conditions: Homo sapiens
Protocol: (§1) Cell lines and media. In the following example, HT-1080 (Human fibrosarcoma harboring NrasQ61K) cells (obtained from ATCC) were grown in DMEM high-glucose media with 1% non-essential amino acids (Life Technologies) and 10% FBS. 143B cells were grown in DMEM high-glucose media with 1% glutamine and 10% FBS. Calu-1 cells were grown in McCoy's 5A media (Life Technologies) supplemented with 10% FBS. All the cell lines were grown at 37° C. under 5% CO2. Cell lines were not tested for mycoplasma. In addition, the panel of four lung cancer (NCI-H23; SK-Mes-1; Calu6 and A549) were purchased from ATCC. They were cultured according to the ATCC protocol of each cell line. The non-malignant breast epithelial cells (MCF10A) were maintained in DMEM/F12 medium supplemented with 5% horse serum, epidermal growth factor (20 ng/ml), insulin (10 μg/ml), hydrocortisone (0.5 mg/ml), cholera toxin (100 ng/ml), and penicillin/streptomycin.
(§2) Cell viability assay. 9,000 cells per 100 μl were seeded in each well in 96-well plates. Lethal compounds were dissolved in DMSO. In the mother plates, DMSO stock of each compound was further diluted with media to create 20 μM or 10 μm as highest concentrations, respectively and a twofold, 9-point dilution series was prepared. Cells were seeded for 24 h and media were replaced by the mother plate drug-dilution media. When ferroptosis inhibitors (for example, 500 nM Ferrostatin-1, 100 μM α-tocopherol, 152 μM deferoxamine) were used in cotreatments with lethal inducers, they were supplemented to cell culture when the lethal compounds were added, and the cells were then incubated for 48 h. When other cell-death-modulating compounds (100 nM sodium selenite) were used in cotreatments, they were supplemented to cell culture for 24 h before lethal compounds were added to cell culture, after which cells were further incubated for 48 h at 37° C. under 5% CO2. On the day of the viability measurement, we added 25 μl per well of 50% Alamar Blue diluted in media (Life Technologies) and further incubated the cells at 37° C. for 6 h. Fluorescence intensity (excitation/emission: 540/590) was measured with a Victor 3 plate reader (PerkinElmer), and the normalized viability was calculated as VL=(IL−I0)/(IV−I0), where VL is the normalized viability, I0 is the raw fluorescence intensities from the wells containing media, IV is the cells treated with a vehicle (negative control), and IL is the cells with the lethal compound (L), respectively. The viability was typically measured in at least biological duplicate. A representative dose-response curve, the mean and standard error of normalized viability from one replicate were plotted.
Statistical analysis and data visualization. Dose-response curve plotting and EC50 computation were performed with Prism 6.0c (GraphPad Software).
Various compounds were selected for analysis of their cytotoxicity in HT-1080 cells according to the procedure described above.

[2] = system: HT-1080 cells; assay: Cell viability assay in HT-1080 cells, cotreatment with cell-death inhibitors; type: cell-based, human; conditions: HT-1080, 48 h; for EC50: Homo sapiens, read-out: EC50 (μM) of TKD1079 + inhbitor
[3] = system: Beas-2B epithelial cells; assay: Cell viability assay, cytotoxicity in Beas-2B cells; type: cell-based; conditions: 48 hours
Protocol: as §2, with “When other cell-death-modulating compounds (100 nM sodium selenite) were used in cotreatments, they were supplemented to cell culture for 24 h before lethal compounds were added to cell culture, after which cells were further incubated for 48 h at 37° C. under 5% CO2. On the day of the viability measurement, we added 25 μl per well of 50% Alamar Blue diluted in media (Life Technologies) and further incubated the cells at 37° C. for 6 h.” left out, “A representative dose-response curve, the mean and standard error of normalized viability from one replicate were plotted.” left out
(§3) In addition, the compound TKD1079 was also analyzed for cytotoxicity in four different lung cancer cell lines according to the procedure described above. […]

[4] = system: four lung cancer cell lines (NCI-H23, Calu6, A549, SK-Mes-1); assay: Cell viability of four lung cancer cell lines cotreated with ferrostatin-1; type: cell-based; conditions: ferrostatin-1 500 nM, 48 h
Protocol: as §1, with “The non-malignant breast epithelial cells (MCF10A) were maintained in DMEM/F12 medium supplemented with 5% horse serum, epidermal growth factor (20 ng/ml), insulin (10 μg/ml), hydrocortisone (0.5 mg/ml), cholera toxin (100 ng/ml), and penicillin/streptomycin.” left out
(§4) Cell viability assay. […] Fluorescence intensity (excitation/emission: 540/590) was measured with a Victor 3 plate reader (PerkinElmer), and the normalized viability was calculated as VL=(IL−I0)/(IV−I0), where VL is the normalized viability, I0 is the raw fluorescence intensities from the wells containing media, IV is the cells treated with a vehicle (negative control), and IL is the cells with the lethal compound (L), respectively. The viability was typically measured in at least biological duplicate. […]

[5] = system: MCF10A non-malignant breast epithelial cell; assay: Cell viability assay, cytotoxicity in MCF10A cells; type: cell-based; conditions: 48 hours
Protocol: as §1, with “The non-malignant breast epithelial cells (MCF10A) were maintained in DMEM/F12 medium supplemented with 5% horse serum, epidermal growth factor (20 ng/ml), insulin (10 μg/ml), hydrocortisone (0.5 mg/ml), cholera toxin (100 ng/ml), and penicillin/streptomycin.” left out
as §4, §3

[6] = system: HT-1080 cells; assay: Analysis of ROS generation: lipid ROS by C11-BODIPY flow cytometry; type: cell-based, human; conditions: C11-BODIPY (2 μM), 4 hours
Protocol: Analysis of ROS Generation. 200,000 HT-1080 cells were seeded in six-well plates at 37° C. for 17 h. Cells were treated with TKD1079 compound, trypsinized, pelleted, and washed once with PBS. For lipophilic or aqueous ROS detection, cells were re-suspended in Hanks' Balanced Salt Solution (HBSS; Life Technologies) containing test compounds as well as C11-BODIPY(581/591) (2 μM) (Life Technologies), and incubated for 10 min at 37° C. Cells were then pelleted, re-suspended in 250 μL HBSS in a BD Falcon tube, and analyzed using a BD Accuri C6 flow cytometer (BD Biosciences). Both dyes were measured in the FL1 channel.

[7] = system: NCI-H23 cells; assay: Cell viability assay, cytotoxicity in NCI-H23 cells; type: cell-based; conditions: 48 hours
Protocol: as §1
Cell viability assay. 9,000 cells per 100 μl were seeded in each well in 96-well plates. Lethal compounds were dissolved in DMSO. In the mother plates, DMSO stock of each compound was further diluted with media to create 20 μM or 10 μm as highest concentrations, respectively and a twofold, 9-point dilution series was prepared. […] Fluorescence intensity (excitation/emission: 540/590) was measured with a Victor 3 plate reader (PerkinElmer), and the normalized viability was calculated as VL=(IL−I0)/(IV−I0), where VL is the normalized viability, I0 is the raw fluorescence intensities from the wells containing media, IV is the cells treated with a vehicle (negative control), and IL is the cells with the lethal compound (L), respectively. The viability was typically measured in at least biological duplicate. […]
In addition, the compound TKD1079 was also analyzed for cytotoxicity in four different lung cancer cell lines according to the procedure described above. […] Cytotoxicity was also determined against MCF10A non-malignant breast epithelial cell, NCI-H1299 human non-small cell lung carcinoma cell line, and Beas-2B epithelial cells isolated from normal human bronchial epithelium.

[8] = HT-1080, HT-1080 cells, compound alone, read-out: EC 50

SMILES: CCC(CC)NS(=O)(=O)c1ccc2c(c1)C(=NO)c1cc(S(=O)(=O)NC(CC)CC)ccc1-2 [TKD1034D, 9-(hydroxyimino)-N^2,N^7-di(pentan-3-yl)-9H-fluorene-2,7-disulfonamide]
- EC50 [1, 8]: 0.51 µM

SMILES: CCCNS(=O)(=O)c1ccc2c(c1)C(=NO)c1cc(S(=O)(=O)NCCC)ccc1-2 [TKD1034E, 9-(hydroxyimino)-N^2,N^7-dipropyl-9H-fluorene-2,7-disulfonamide]
- EC50 [1, 8]: 5.67 µM

SMILES: C#CC1(O)c2cc(S(=O)(=O)NC3CCCCC3)ccc2-c2ccc(S(=O)(=O)NC3CCCCC3)cc21 [TKD1066, N^2,N^7-dicyclohexyl-9-ethynyl-9-hydroxy-9H-fluorene-2,7-disulfonamide]
- EC50 [1, 8]: 4.59 µM

SMILES: O=S(=O)(NC1CC2CCC1C2)c1ccc2c(c1)C(=NO)c1cc(S(=O)(=O)NC3CC4CCC3C4)ccc1-2 (stereo not shown) [TKD1079, N^2,N^7-di(bicyclo[2.2.1]heptan-2-yl)-9-(hydroxyimino)-9H-fluorene-2,7-disulfonamide]
- Slectivity in fold [EC50 (TKD1079 + inhibitor)/ EC50 inhbitor] ([2]; DFOM (152 μM)): 34.2 fold
- Slectivity in fold [EC50 (TDK1079 + inhibitor)/ EC50 inhbitor] ([2]; Ebselen (5 μM)): 5.8 fold
- Slectivity in fold [EC50 (TKD1079 + inhibitor)/ EC50 inhbitor] ([2]; Fer 1 (500 nM)): 68.8 fold
- Slectivity in fold [EC50 (TDK1079 + inhibitor)/ EC50 inhbitor] ([2]; Selenite (100 nM)): 9.5 fold
- Slectivity in fold [EC50 (TDK1079 + inhibitor)/ EC50 inhbitor] ([2]; TOFA (10 μM)): 148.7 fold
- Slectivity in fold [EC50 (TDK1079 + inhibitor)/ EC50 inhbitor] ([2]; Trolox (100 μM)): 11.6 fold
- Slectivity in fold [EC50 (TKD1079 + inhibitor)/ EC50 inhbitor] ([2]; ZVAD 45 μM): 0.6 fold
- blocking of the compound's lethality by the apoptosis inhibitor pathway (ZVAD) ([2]; ZVAD 45 μM): did not block
- Slectivity in fold [EC50 (TKD1079 + inhibitor)/ EC50 inhbitor] ([2]; aToc (100 μM)): 13.5 fold
- EC50 ([2]; cotreated with DFOM (152 μM)): 2.73 µM
- EC50 ([2]; cotreated with Ebselen (5 μM)): 0.459 µM
- EC50 ([2]; cotreated with Fer 1 (500 nM)): 5.48 µM
- EC50 ([2]; cotreated with Selenite (100 nM)): 0.758 µM
- EC50 ([2]; cotreated with TOFA (10 μM)): 11.8 µM
- EC50 ([2]; cotreated with Trolox (100 μM)): 0.924 µM
- EC50 ([2]; cotreated with ZVAD (45 μM)): 0.051 µM
- EC50 ([2]; cotreated with aToc (100 μM)): 1.08 µM
- cytotoxicity in normal human lung Beas-2B cells [3]: without harming
- cytotoxicity in the presence of Fer-1 [4]: blocked
- cytotoxicity in breast MCF10A cells [5]: without harming
- lipid ROS generation during cell death [6]: increased
- EC50 ([1]; HT-1080, 48 h, HT-1080 cells, 48 hours, no inhibitor, read-out: EC50 (μM) of TKD1079): 0.0797 µM
- EC50 [1, 8]: 0.079 µM
- ferroptosis induction in NCI-H23 using ferroptosis inhibitors ([7]; NCI-H23, DFOM (152 μM) and Fer-1 (0.5 μM)): induces ferroptosis
- cytotoxicity (cell viability) in NCI-H23 cells [7]: highly potent

SMILES: O=S(=O)(NC1CCCCC1)c1ccc2c(c1)C(Br)c1cc(S(=O)(=O)NC3CCCCC3)ccc1-2 [TKD1100, 9-bromo-N2,N^7-dicyclohexyl-9H-fluorene-2,7-disulfonamide]
- EC50 [1, 8]: 3.56 µM

SMILES: O=S(=O)(NC1C2CC3CC(C2)CC1C3)c1ccc2c(c1)C(=NO)c1cc(S(=O)(=O)NC3C4CC5CC(C4)CC3C5)ccc1-2 (stereo not shown) [TKD2043, N^2,N^7-di(adamantan-2-yl)-9-(hydroxyimino)-9H-fluorene-2,7-disulfonamide]
- cytotoxicity (cell viability) in NCI-H23 cells [7]: significantly more potent than TKD1079 and FIN56

SMILES: CC(C)CNS(=O)(=O)c1ccc2c(c1)C(=NO)c1cc(S(=O)(=O)NCC(C)C)ccc1-2 [TKD10416, 9-(hydroxyimino)-N^2,N^7-diisobutyl-9H-fluorene-2,7-disulfonamide]
- EC50 [1, 8]: 4.35 µM
